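Interpolation was linear, between the two tested concentrations surrounding the appropriate level; five concentrations were tested over 48 hours in 96-well plates. GI50 = concentration required for 50% inhibition of growth.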 Activity calls are given as the source filed them. Rule as the data show it: active = GI50 up to about 1.1 µM and inactive = higher.
Columns and labels:
Assay in all cases: NCI-60 cell line screen, 48 h
786-0 = tested on: 786-0
A498 = tested on: A498
A549 = tested on: A549
ACHN = tested on: ACHN
CAKI-1 = tested on: CAKI-1
CCRF-CEM = tested on: CCRF-CEM
COLO 205 = tested on: COLO 205
DU-145 = tested on: DU-145
EKVX = tested on: EKVX
HCC 2998 = tested on: HCC 2998
HCT-116 = tested on: HCT-116
HCT-15 = tested on: HCT-15
HL-60 = tested on: HL-60
HOP-62 = tested on: HOP-62
HT-29 = tested on: HT-29
Hs-578T = tested on: Hs-578T
IGROV-1 = tested on: IGROV-1
K562 = tested on: K562
KM12 = tested on: KM12
LOX IMVI = tested on: LOX IMVI
M14 = tested on: M14
MCF7 = tested on: MCF7
MDA-MB-231 = tested on: MDA-MB-231
MDA-MB-435 = tested on: MDA-MB-435
MDA-N = tested on: MDA-N
MOLT-4 = tested on: MOLT-4
Malme-3M = tested on: Malme-3M
NCI-H226 = tested on: NCI-H226
NCI-H23 = tested on: NCI-H23
NCI-H460 = tested on: NCI-H460
NCI-H522 = tested on: NCI-H522
NCI/ADR-RES = tested on: NCI/ADR-RES
OVCAR-3 = tested on: OVCAR-3
OVCAR-4 = tested on: OVCAR-4
OVCAR-8 = tested on: OVCAR-8
PC-3 = tested on: PC-3
RPMI-8226 = tested on: RPMI-8226
RXF 393 = tested on: RXF 393
SF-268 = tested on: SF-268
SF-295 = tested on: SF-295
SF-539 = tested on: SF-539
SK-MEL-28 = tested on: SK-MEL-28
SK-MEL-2 = tested on: SK-MEL-2
SK-MEL-5 = tested on: SK-MEL-5
SK-OV-3 = tested on: SK-OV-3
SN12C = tested on: SN12C
SNB-19 = tested on: SNB-19
SNB-75 = tested on: SNB-75
SR = tested on: SR
SW-620 = tested on: SW-620
T47D = tested on: T47D
TK-10 = tested on: TK-10
U-251 = tested on: U-251
UACC-257 = tested on: UACC-257
UACC-62 = tested on: UACC-62
UO-31 = tested on: UO-31
BT-549 = tested on: BT-549
OVCAR-5 = tested on: OVCAR-5
HOP-92 = tested on: HOP-92

COC(CN(C)C(=S)Nc1cccc2ccccc12)OC
GI50 (786-0): > 10 µM (inactive) | GI50 (A498): > 10 µM (inactive) | GI50 (A549): > 10 µM (inactive) | GI50 (ACHN): > 10 µM (inactive) | GI50 (CAKI-1): > 10 µM (inactive) | GI50 (CCRF-CEM): > 10 µM (inactive) | GI50 (COLO 205): > 10 µM (inactive) | GI50 (DU-145): > 10 µM (inactive) | GI50 (EKVX): > 10 µM (inactive) | GI50 (HCC 2998): > 10 µM (inactive) | GI50 (HCT-116): > 10 µM (inactive) | GI50 (HCT-15): > 10 µM | GI50 (HL-60): > 10 µM (inactive) | GI50 (HOP-62): > 10 µM (inactive) | GI50 (HT-29): > 10 µM (inactive) | GI50 (Hs-578T): > 10 µM (inactive) | GI50 (IGROV-1): > 10 µM (inactive) | GI50 (K562): > 10 µM (inactive) | GI50 (KM12): > 10 µM (inactive) | GI50 (LOX IMVI): > 10 µM (inactive) | GI50 (M14): > 10 µM (inactive) | GI50 (MCF7): > 10 µM (inactive) | GI50 (MDA-MB-231): > 10 µM (inactive) | GI50 (MDA-MB-435): > 10 µM (inactive) | GI50 (MDA-N): > 10 µM (inactive) | GI50 (MOLT-4): > 10 µM (inactive) | GI50 (Malme-3M): > 10 µM (inactive) | GI50 (NCI-H226): > 10 µM (inactive) | GI50 (NCI-H23): > 10 µM (inactive) | GI50 (NCI-H460): > 10 µM (inactive) | GI50 (NCI-H522): > 10 µM (inactive) | GI50 (NCI/ADR-RES): > 10 µM (inactive) | GI50 (OVCAR-3): > 10 µM (inactive) | GI50 (OVCAR-4): > 10 µM (inactive) | GI50 (OVCAR-8): > 10 µM (inactive) | GI50 (PC-3): > 10 µM (inactive) | GI50 (RPMI-8226): > 10 µM (inactive) | GI50 (RXF 393): > 10 µM (inactive) | GI50 (SF-268): > 10 µM (inactive) | GI50 (SF-295): > 10 µM (inactive) | GI50 (SF-539): > 10 µM (inactive) | GI50 (SK-MEL-28): > 10 µM (inactive) | GI50 (SK-MEL-2): > 10 µM (inactive) | GI50 (SK-MEL-5): > 10 µM (inactive) | GI50 (SK-OV-3): > 10 µM (inactive) | GI50 (SN12C): > 10 µM (inactive) | GI50 (SNB-19): > 10 µM (inactive) | GI50 (SNB-75): > 10 µM (inactive) | GI50 (SR): > 10 µM (inactive) | GI50 (SW-620): > 10 µM (inactive) | GI50 (T47D): > 10 µM (inactive) | GI50 (TK-10): > 10 µM (inactive) | GI50 (U-251): > 10 µM (inactive) | GI50 (UACC-257): > 10 µM (inactive) | GI50 (UACC-62): > 10 µM (inactive) | GI50 (UO-31): > 10 µM (inactive)

CCOc1ccc(N/C(=C(/C(Cl)=C(/Cl)NC(C)(C)C)[N+](=O)[O-])n2nnc3ccccc32)cc1
GI50 (786-0): 18 µM (inactive) | GI50 (A498): 91.6 µM (inactive) | GI50 (A549): 70.3 µM (inactive) | GI50 (ACHN): 31.8 µM (inactive) | GI50 (BT-549): 17.9 µM (inactive) | GI50 (CAKI-1): 19.3 µM (inactive) | GI50 (CCRF-CEM): 12.7 µM (inactive) | GI50 (COLO 205): 21.1 µM (inactive) | GI50 (EKVX): 39 µM (inactive) | GI50 (HCC 2998): > 100 µM (inactive) | GI50 (HCT-116): 18.6 µM (inactive) | GI50 (HCT-15): 20.4 µM | GI50 (HOP-62): 70 µM (inactive) | GI50 (HT-29): 35.1 µM (inactive) | GI50 (Hs-578T): 11 µM (inactive) | GI50 (K562): > 100 µM (inactive) | GI50 (KM12): 21.1 µM (inactive) | GI50 (M14): > 100 µM (inactive) | GI50 (MCF7): 26.1 µM (inactive) | GI50 (MDA-MB-231): 17.9 µM (inactive) | GI50 (MDA-MB-435): 18.2 µM (inactive) | GI50 (MOLT-4): > 100 µM (inactive) | GI50 (Malme-3M): 15.8 µM (inactive) | GI50 (NCI-H226): > 100 µM (inactive) | GI50 (NCI-H23): 22.6 µM (inactive) | GI50 (NCI-H460): 76.9 µM (inactive) | GI50 (NCI/ADR-RES): 32.4 µM (inactive) | GI50 (OVCAR-3): 25.9 µM (inactive) | GI50 (OVCAR-4): 25.6 µM (inactive) | GI50 (OVCAR-5): 31.6 µM (inactive) | GI50 (OVCAR-8): 16.6 µM (inactive) | GI50 (PC-3): 28.7 µM (inactive) | GI50 (RPMI-8226): 23.9 µM (inactive) | GI50 (RXF 393): 20.1 µM (inactive) | GI50 (SF-268): 16.7 µM (inactive) | GI50 (SF-295): 28.1 µM (inactive) | GI50 (SF-539): 24.1 µM (inactive) | GI50 (SK-MEL-28): 16.4 µM (inactive) | GI50 (SK-MEL-2): 31.6 µM (inactive) | GI50 (SK-OV-3): 59.8 µM (inactive) | GI50 (SN12C): 34 µM (inactive) | GI50 (SNB-19): 47.6 µM (inactive) | GI50 (SNB-75): 24.2 µM (inactive) | GI50 (SW-620): 19.2 µM (inactive) | GI50 (T47D): 15.5 µM (inactive) | GI50 (U-251): 19 µM (inactive) | GI50 (UACC-257): 53.7 µM (inactive) | GI50 (UACC-62): 22.8 µM (inactive) | GI50 (UO-31): 29.9 µM (inactive)

COc1cc2c(cc1OC)C1C3CCCCC3CCN1CC2 (centres undefined)
GI50 (786-0): 88.5 µM (inactive) | GI50 (A498): > 100 µM (inactive) | GI50 (A549): 91.2 µM (inactive) | GI50 (ACHN): > 100 µM (inactive) | GI50 (CAKI-1): > 100 µM (inactive) | GI50 (CCRF-CEM): > 100 µM (inactive) | GI50 (COLO 205): 67 µM (inactive) | GI50 (DU-145): > 100 µM (inactive) | GI50 (EKVX): > 100 µM (inactive) | GI50 (HCC 2998): > 100 µM (inactive) | GI50 (HCT-116): 48.6 µM (inactive) | GI50 (HCT-15): > 100 µM | GI50 (HL-60): > 100 µM (inactive) | GI50 (HOP-62): > 100 µM (inactive) | GI50 (HOP-92): > 100 µM (inactive) | GI50 (HT-29): 88.9 µM (inactive) | GI50 (Hs-578T): > 100 µM (inactive) | GI50 (IGROV-1): > 100 µM (inactive) | GI50 (K562): > 100 µM (inactive) | GI50 (KM12): > 100 µM (inactive) | GI50 (LOX IMVI): > 100 µM (inactive) | GI50 (MCF7): 0.36 µM (active) | GI50 (MDA-MB-231): > 100 µM (inactive) | GI50 (MDA-MB-435): > 100 µM (inactive) | GI50 (MOLT-4): > 100 µM (inactive) | GI50 (Malme-3M): > 100 µM (inactive) | GI50 (NCI-H226): 88.1 µM (inactive) | GI50 (NCI-H23): > 100 µM (inactive) | GI50 (NCI-H460): > 100 µM (inactive) | GI50 (NCI-H522): > 100 µM (inactive) | GI50 (NCI/ADR-RES): > 100 µM (inactive) | GI50 (OVCAR-3): 79.4 µM (inactive) | GI50 (OVCAR-4): > 100 µM (inactive) | GI50 (OVCAR-5): > 100 µM (inactive) | GI50 (OVCAR-8): > 100 µM (inactive) | GI50 (PC-3): > 100 µM (inactive) | GI50 (RXF 393): 27 µM (inactive) | GI50 (SF-268): > 100 µM (inactive) | GI50 (SF-295): 83.8 µM (inactive) | GI50 (SF-539): > 100 µM (inactive) | GI50 (SK-MEL-28): > 100 µM (inactive) | GI50 (SK-MEL-2): > 100 µM (inactive) | GI50 (SK-MEL-5): > 100 µM (inactive) | GI50 (SK-OV-3): > 100 µM (inactive) | GI50 (SN12C): 62.7 µM (inactive) | GI50 (SNB-19): > 100 µM (inactive) | GI50 (SNB-75): 18.3 µM (inactive) | GI50 (SR): > 100 µM (inactive) | GI50 (SW-620): > 100 µM (inactive) | GI50 (T47D): > 100 µM (inactive) | GI50 (TK-10): > 100 µM (inactive) | GI50 (U-251): > 100 µM (inactive) | GI50 (UACC-257): > 100 µM (inactive) | GI50 (UACC-62): > 100 µM (inactive)

Reference: ChEMBL document CHEMBL1201862, “PubChem BioAssay data set” (2004)
